Source: patent publication US20110022129A1, “NANOPARTICLES FOR PHOTODYNAMIC THERAPY” (priority 2007, published 2011)
Converted amounts (≈) assume the structure as drawn.

What was measured:
physchem = settings: aqueous with cosolvent or surfactant or cyclodextrin, kinetic from dmso stock
Text: Nanoparticles were isolated as previously described, and the concentration of free β-carotene in the filtrate measured.

[1] = test system: AB12, murine malignant pleural mesothelioma (MPM); assay: External-beam (980 nm infrared) nanophosphor-mediated photodynamic therapy of AB12 flank tumors in mice; assay type: in vivo, mouse (BALB/cJ); settings: for total number of surviving animals: sixty day observation, survivors/group size
Protocol: Six to twelve week old, female BALB/cJ (AB12 tumor host) mice, obtained pathogen-free from Taconic Farms, were used for all of the experiments. Animals were kept in conventional conditions in micro-isolator cages in a laminar flow unit under ambient light with full access to food and water during experiments.
AB12, murine malignant pleural mesothelioma (MPM) was utilized for tumor inoculation. Cells were maintained in complete DMEM/F12 culture media in a 37° C. humidified 5% CO2 incubator.
Seventy balb/C mice were inoculated with 5×10^5 AB12, malignant mesothelioma cells via subcutaneous flank injection. The subsequent tumors were measured using digital calipers three times per week until the tumors reached ˜200-300 mm^3 at which time the mice were given their first treatment. Mice were divided into […]. The groups were as follows: i. Control, ii. Infrared light-Nanophosphor-Photosensitizer (IR-NP-PS), iii. IR-NP, iv. IR-PS, v. IR alone, vi. NP alone, and vii. PS alone. Groups ii, iii, and vi were administered intra-tumoral injections with 100 μl of 25 mg/ml nanophosphor suspension in saline at 72 and 48 h prior to only the first treatment. Groups ii, iv, and vii were administered weekly intra-peritoneal (i.p.) injections of 10 mg/kg Photofrin™, twenty-four hours before first treatment of each week.
For this procedure mice were anesthetized with i.p. ketamine and xylazine, 80 mg/kg and 12 mg/kg, respectively. A maximum dose of 1.0 W of 980 nm light (BW Tek) at the treatment surface was measured using an IR thermopile detector (Coherent, Inc) for a total dose of 28.3 J/cm^2. Pulsed light delivery method of 1 second ON, 2 seconds OFF for 1.5 hours was utilized to minimize damage of healthy tissue due to heat from the infrared light by allowing the tissue to dissipate the heat between delivery cycles. […] Over the course of the entire treatment program tumors were measured three times weekly and mice were monitored for signs of morbidity for 60 days or until tumors reached endpoint of 500 mm^3.

Compound	solubility (physchem) [µg/mL]	tumor regression ([1]; over treatment program, in words)	total number of surviving animals [1]
CC1=C(/C=C/C(C)=C/C=C/C(C)=C/C=C/C=C(C)/C=C/C=C(C)/C=C/C2=C(C)CCCC2(C)C)C(C)(C)CCC1 [β-carotene]	~50 (≈ 93.1 µM)	–	–
Photofrin [IR-PS]	–	No animals	0/10
Photofrin [PS alone]	–	–	0/9
